Results on 5 molecules are retold here after patent publication US9440953B2, “Substituted amino triazoles useful as acidic mammalian chitinase inhibitors” (OncoArendi Therapeutics Sp z o.o., priority 2014, dated 2016).

SMILES strings stand for the structures.

recombinant human AMCase, sequence (Q9BZP6 22-476): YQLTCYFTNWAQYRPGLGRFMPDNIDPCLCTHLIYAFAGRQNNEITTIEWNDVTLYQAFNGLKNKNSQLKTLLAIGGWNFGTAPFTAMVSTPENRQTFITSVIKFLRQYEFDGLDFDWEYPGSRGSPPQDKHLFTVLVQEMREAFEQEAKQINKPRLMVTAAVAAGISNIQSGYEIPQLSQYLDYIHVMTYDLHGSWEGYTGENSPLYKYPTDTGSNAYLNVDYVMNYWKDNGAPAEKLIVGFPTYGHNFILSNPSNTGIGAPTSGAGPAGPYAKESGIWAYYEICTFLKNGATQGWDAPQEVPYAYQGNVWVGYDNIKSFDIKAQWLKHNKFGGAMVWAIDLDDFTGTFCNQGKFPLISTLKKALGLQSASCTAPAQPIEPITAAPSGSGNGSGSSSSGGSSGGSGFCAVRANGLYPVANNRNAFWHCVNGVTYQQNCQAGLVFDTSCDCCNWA

The experiment has as its target recombinant human AMCase (Homo sapiens, UniProt Q9BZP6). Nature of the experiment: Human AMCase Activity Assay. It is filed as biochemical. Conditions: recombinant hAMCase, 4-methylumbelliferyl B-D-N,N′-diacetylchitobioside substrate, citrate buffer pH 5.2, 37° C., 60 minutes. How it is done:
Human AMCase Activity Assay
The assay was run in the 96-well plate format, each reaction in the total volume of 100 μL. 4-Methylumbelliferyl B-D-N,N′-diacetylchitobioside hydrate was used as a substrate for the enzyme. Upon hydrolysis by AMCase, the substrate releases 4-methylumbelliferyl (4MU) that, when ionized in basic pH, emits fluorescence at 460 nm.
Briefly, 40 μL of a substrate was added to each well, followed by 10 μL of compound dilution and 50 μL of hAMCase recombinant enzyme solution. […] The fluorescence of the reaction product was measured in Perkin Elmer Envision fluorescent plate reader at an excitation wavelength of 355 nm.
As for `CC(=O)NS(=O)(=O)c1ccc(CN(CCc2ccc(Br)cc2)C2CCN(c3nc(N)n[nH]3)CC2)cc1` [Example 16, N-((4-(((1-(3-amino-1H-1,2,4-triazol-5-yl)piperidin-4-yl)(4-bromophenethyl)-amino)methyl)phenyl)sulfonyl)acetamide], the half-inhibitory concentration (IC50) is 1 to 10 nM.
For `CS(=O)(=O)Nc1ccc(CN(CCc2ccc(Cl)cc2)C2CCN(c3nc(N)n[nH]3)CC2)cc1` [Example 33, N-(4-(((1-(3-amino-1H-1,2,4-triazol-5-yl)piperidin-4-yl)(4-chlorophenethyl)-amino)methyl)phenyl)methanesulfonamide] the value was 1 to 10 nM; for `Nc1n[nH]c(N2CCC(N(CCc3ccc(Cl)cc3)Cc3ccc(F)c(C(=O)O)c3)CC2)n1` [Example 8, 5-(((1-(3-amino-1H-1,2,4-triazol-5-yl)piperidin-4-yl)(4-chlorophenethyl)amino)-methyl)-2-fluorobenzoic acid], 10 to 100 nM.
As for `Nc1n[nH]c(N2CCC(N(CCc3ccc(Cl)cc3)CC(=O)Nc3ccccc3)CC2)n1` [Example 21, 2-((1-(3-amino-1H-1,2,4-triazol-5-yl)piperidin-4-yl)(4-chlorophenethyl)amino)-N-phenylacetamide], the figure is 100 to 1000 nM; as for `CC(=O)NS(=O)(=O)CCN(CCc1ccc(Cl)cc1)C1CCN(c2nc(N)n[nH]2)CC1` [Example 38, N-((2-((1-(3-amino-1H-1,2,4-triazol-5-yl)piperidin-4-yl)(4-chlorophenethyl)-amino)ethyl)sulfonyl)acetamide], 10 to 100 nM.

Usually IC50 stands for the concentration at which inhibition is half-maximal.
